Reference: ChEMBL document CHEMBL1201862, “PubChem BioAssay data set” (2004)
The source made the active and inactive calls. Unless noted, the rule behind the calls is not given here.

Columns and labels:
[1] = biological target: ADP-ribosylation factor GTPase-activating protein 1 (Rattus norvegicus, UniProt Q62848); assay: Fluorescence polarization-based biochemical high throughput dose response screening assay to identify inhibitors of ADP-ribosylation factor GTPase activating protein 1 (ARFGAP1).; format: functional
[2] = biological target: T1, Diacylglycerol lipase-beta (Mus musculus, UniProt Q91WC9); assay: Late stage assay provider results from the probe development effort to identify inhibitors of diacylglycerol lipase, beta (DAGLb): fluorescence-based dose-response biochemical gel-based competitive Activity-Based Protein Profiling (ABPP) inhibition of DAGLb in vitro.; format: functional
[3] = biological target: Monoacylglycerol lipase ABHD6 (Mus musculus, UniProt Q8R2Y0); assay: Late stage assay provider results from the probe development effort to identify inhibitors of diacylglycerol lipase, beta (DAGLb): fluorescence-based dose-response biochemical gel-based competitive Activity-Based Protein Profiling (ABPP) inhibition of antitarget ABHD6 in vitro, set 2.; format: functional
[4] = biological target: T1, Diacylglycerol lipase-beta; assay: Late stage assay provider results from the probe development effort to identify inhibitors of diacylglycerol lipase, beta (DAGLb): LCMS-based biochemical dose response assay.; format: functional
[5] = biological target: Latent membrane protein 1 (Human herpesvirus 4 (strain B95-8), UniProt P03230); assay: LMP1 TES1 pathway selectivity over dsRED control – imaging, HEK293T, dual-color eGFP/dsRED, cherry-picks, selectivity assay for LMP1 NF-kB inhibitor project, dose response (AID 588398); format: functional, cell-based
[6] = biological target: Botulinum neurotoxin type F (Clostridium botulinum, UniProt P30996); assay: High-throughput multiplex microsphere dose response for inhibitors of toxin protease, specifically Botulinum neurotoxin light chain F protease, compounds from Cherry Pick 02.; format: functional; details: read-out: EC50_MICROM
Chain of Botulinum neurotoxin type F (P30996 1-436 limits assumed): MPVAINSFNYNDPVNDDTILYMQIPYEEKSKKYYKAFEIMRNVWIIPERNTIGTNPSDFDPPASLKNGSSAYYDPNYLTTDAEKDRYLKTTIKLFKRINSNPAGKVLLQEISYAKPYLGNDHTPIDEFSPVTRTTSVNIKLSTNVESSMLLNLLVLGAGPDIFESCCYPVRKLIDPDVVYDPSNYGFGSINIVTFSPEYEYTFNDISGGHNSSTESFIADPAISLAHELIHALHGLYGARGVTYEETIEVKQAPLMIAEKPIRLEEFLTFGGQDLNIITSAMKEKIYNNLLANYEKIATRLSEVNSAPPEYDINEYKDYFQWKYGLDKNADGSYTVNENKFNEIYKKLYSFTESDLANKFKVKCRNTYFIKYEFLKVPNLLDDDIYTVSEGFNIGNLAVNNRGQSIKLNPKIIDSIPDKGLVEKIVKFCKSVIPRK

T1 sequence (Q91WC9 whole entry): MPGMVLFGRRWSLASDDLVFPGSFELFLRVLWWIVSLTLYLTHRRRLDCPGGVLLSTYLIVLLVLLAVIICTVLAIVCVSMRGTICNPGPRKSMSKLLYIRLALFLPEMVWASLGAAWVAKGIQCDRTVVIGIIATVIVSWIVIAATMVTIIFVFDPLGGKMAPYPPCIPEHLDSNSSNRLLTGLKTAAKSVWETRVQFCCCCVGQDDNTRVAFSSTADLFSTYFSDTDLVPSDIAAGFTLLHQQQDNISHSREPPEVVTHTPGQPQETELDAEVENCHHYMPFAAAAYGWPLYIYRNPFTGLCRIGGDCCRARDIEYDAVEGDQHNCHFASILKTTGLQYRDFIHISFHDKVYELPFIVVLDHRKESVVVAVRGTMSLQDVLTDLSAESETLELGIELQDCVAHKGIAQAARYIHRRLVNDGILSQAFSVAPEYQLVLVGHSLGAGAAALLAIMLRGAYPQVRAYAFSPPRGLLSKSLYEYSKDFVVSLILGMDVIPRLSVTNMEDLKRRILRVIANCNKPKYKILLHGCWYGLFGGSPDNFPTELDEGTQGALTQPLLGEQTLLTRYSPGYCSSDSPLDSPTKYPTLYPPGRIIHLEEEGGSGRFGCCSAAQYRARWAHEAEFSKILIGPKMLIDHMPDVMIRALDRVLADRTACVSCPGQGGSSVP
Chain of ADP-ribosylation factor GTPase-activating protein 1 (Q62848 whole entry): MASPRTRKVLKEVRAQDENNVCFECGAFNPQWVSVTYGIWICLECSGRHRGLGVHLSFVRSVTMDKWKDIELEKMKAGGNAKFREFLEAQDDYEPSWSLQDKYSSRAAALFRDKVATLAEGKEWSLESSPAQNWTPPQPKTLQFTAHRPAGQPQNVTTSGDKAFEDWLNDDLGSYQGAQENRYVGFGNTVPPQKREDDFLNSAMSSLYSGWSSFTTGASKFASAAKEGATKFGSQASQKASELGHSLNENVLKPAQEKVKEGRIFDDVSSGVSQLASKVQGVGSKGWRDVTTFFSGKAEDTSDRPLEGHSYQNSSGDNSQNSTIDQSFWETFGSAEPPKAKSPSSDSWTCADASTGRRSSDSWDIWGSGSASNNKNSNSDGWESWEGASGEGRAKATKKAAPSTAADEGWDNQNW
Chain of Latent membrane protein 1 (P03230 whole entry): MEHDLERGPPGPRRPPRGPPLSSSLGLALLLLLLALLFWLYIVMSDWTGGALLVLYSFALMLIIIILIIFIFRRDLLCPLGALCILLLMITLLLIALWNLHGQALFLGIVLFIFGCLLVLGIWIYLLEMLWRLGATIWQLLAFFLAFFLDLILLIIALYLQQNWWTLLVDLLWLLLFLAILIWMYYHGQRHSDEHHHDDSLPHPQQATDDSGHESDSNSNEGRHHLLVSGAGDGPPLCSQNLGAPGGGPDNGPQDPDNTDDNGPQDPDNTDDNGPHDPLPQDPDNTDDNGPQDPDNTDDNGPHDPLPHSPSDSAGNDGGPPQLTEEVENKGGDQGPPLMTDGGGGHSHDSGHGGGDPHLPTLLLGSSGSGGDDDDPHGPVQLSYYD
Chain of Monoacylglycerol lipase ABHD6 (Q8R2Y0 whole entry): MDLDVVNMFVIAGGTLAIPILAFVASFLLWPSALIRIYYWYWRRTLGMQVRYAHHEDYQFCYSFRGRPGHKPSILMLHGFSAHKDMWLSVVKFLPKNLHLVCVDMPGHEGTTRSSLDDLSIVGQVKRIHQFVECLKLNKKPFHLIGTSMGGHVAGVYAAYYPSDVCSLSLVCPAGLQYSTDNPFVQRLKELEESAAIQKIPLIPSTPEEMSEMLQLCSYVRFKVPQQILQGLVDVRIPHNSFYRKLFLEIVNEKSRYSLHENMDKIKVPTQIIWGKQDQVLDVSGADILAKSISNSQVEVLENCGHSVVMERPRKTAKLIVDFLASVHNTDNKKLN

With Cc1ccc2nc(SCC(=O)Nc3cccc(F)c3)nc(=O)n2c1 the IC50 [1] was 44.9 µM (inactive).

In the case of COc1ccccc1-c1ccc(-c2cn(C(=O)N3CCCCC3Cc3ccccc3)nn2)cc1 (stereo unspecified), the IC50 [2] is reported as 0.056 µM (active), the IC50 [3] is reported as 0.001 µM (active) and the IC50 [4] is reported as 0.1 µM (active).

COc1ccc(C(=O)OCC(=O)c2c[nH]c3ccccc23)cc1OC was tested, and the AC50 [5] was 164 µM (active) and the EC50 [6] was > 20 µM (inactive).
